Where two headings read alike, the source gives them in different places.
Key:
BRD4 (BDI_K57-E168) = BRD4 (BDI_K57-E168) (Homo sapiens (Human), UniProt O60885); assay: TR-FRET bromodomain binding assay, BRD4 first bromodomain; settings: His-tagged BD1, 100 nM Alexa647 probe
Protocol: (§1) A time-resolved fluorescence resonance energy transfer (TR-FRET) assay was used to determine the affinities of compounds of the Examples listed in Table 1 for each bromodomain of BRD4. His-tagged first (BD1: amino acids K57-E168) and second (BD2: amino acids E352-E168) bromodomains of BRD4 were expressed and purified. An Alexa647-labeled BET-inhibitor was used as the fluorescent probe in the assay.
(§2) Compound dilution series were prepared in DMSO via a 3-fold serial dilution from 2.5 mM to 42 nM. Compounds were then diluted 6:100 in assay buffer (20 mM Sodium Phosphate, pH 6.0, 50 mM NaCl, 1 mM EDTA, 0.01% Triton X-100, 1 mM DTT) to yield 3× working solutions. Six microliters (μL) of the working solution was then transferred to white, low-volume assay plates (Costar #3673). A 1.5× assay mixture containing His-tagged bromodomain, Europium-conjugated anti-His antibody (Invitrogen PV5596) and the Alexa-647-conjugated probe molecule was also prepared. Twelve μL of this solution were added to the assay plate to reach a final volume of 18 μL. The final concentration of 1× assay buffer contains 2% DMSO, 50 μM−0.85 nM compound, 8 nM bromodomain, 1 nM antibody and 100 or 30 nM probe (for BDI or BDII, respectively). After a one-hour incubation at room temperature, TR-FRET ratios were determined using an Envision multilabel plate reader (Ex 340, Em 495/520).
(§3) TR-FRET data were normalized to the means of 24 no-compound controls (“high”) and 8 controls containing 1 μM un-labeled probe (“low”). Percent inhibition was plotted as a function of compound concentration and the data were fit with the 4 parameter logistic equation to obtain IC50s Inhibition constants (Ki) were calculated from the IC50s, probe Kd and probe concentration. Typical Z′ values were between 0.65 and 0.75. The minimum significant ratio was determined to evaluate assay reproducibility (Eastwood et al., (2006) J Biomol Screen, 11: 253-261). The MSR was determined to be 2.03 for BDI and 1.93 for BDII, and a moving MSR (last six run MSR overtime) for both BDI and BDII was typically <3.

BRD4 (BDII_E352-M457) = BRD4 (BDII_E352-M457) (Homo sapiens (Human), UniProt O60885); assay: TR-FRET bromodomain binding assay, BRD4 second bromodomain; settings: His-tagged BD2, 30 nM Alexa647 probe
Protocol: as §1, §2, §3

[1] = system: breast cancer cell line MX-1; assay: MX-1 cell line proliferation assay (3-day, Cell Titer Glo); format: cell-based, human; settings: 72 hours, read-out: Cellular proliferation: EC50
Protocol: The impact of compounds of the Examples on cancer cell proliferation was determined using the breast cancer cell line MX-1 (ATCC) in a 3-day proliferation assay. MX-1 cells were maintained in RPMI supplemented with 10% FBS at 37 C.° and an atmosphere of 5% CO2. For compound testing, MX-1 cells were plated in 96-well black bottom plates at a density of 5000 cells/well in 90 μl of culture media and incubated at 37° overnight to allow cell adhesion and spreading. Compound dilution series were prepared in DMSO via a 3-fold serial dilution from 3 mM to 0.1 μM. The DMSO dilution series were then diluted 1:100 in phosphate buffered saline, and 10 μL of the resulted solution were added to the appropriate wells of the MX-1 cell plate. The final compound concentrations in the wells were 3, 1, 0.3, 0.1, 0.03, 0.01, 0.003, 0.001, 0.0003 and 0.0001 μM.
Luminescence readings from the Cell Titer Glo assay were normalized to the DMSO treated cells and analyzed using the GraphPad Prism software with sigmoidal curve fitting to obtain EC50s. The minimum significant ratio (MSR) was determined to evaluate assay reproducibility (Eastwood et al., (2006) J Biomol Screen, 11: 253-261).

| Ki (BRD4 (BDI_K57-E168)) [nM] | Ki (BRD4 (BDII_E352-M457)) [nM] | EC50 ([1]; Homo sapiens, MX1, MX-1 cells) [nM] | EC50 ([1]; MX-1 cells) [nM] | SMILES |
| --- | --- | --- | --- | --- |
| 526 | 4140 | > 3000 | – | Cc1[nH]c(-c2ccccc2OCc2cccnc2)c2c1C(=O)CCC2 [Example 37, 3-methyl-1-[2-(pyridin-3-ylmethoxy)phenyl]-2,5,6,7-tetrahydro-4H-isoindol-4-one] |
| 202 | 1940 | 1880 | – | Cc1[nH]c(-c2ccccc2OCC2CCOCC2)c2c1C(=O)CCC2 [Example 32, 3-methyl-1-[2-(tetrahydro-2H-pyran-4-ylmethoxy)phenyl]-2,5,6,7-tetrahydro-4H-isoindol-4-one] |
| 68 | 653 | 734 | – | Cc1[nH]c(-c2cc(C(=O)NCC3CCCO3)ccc2Oc2ccccc2)c2c1C(=O)CCC2 (centres unmarked) [Example 56, 3-(3-methyl-4-oxo-4,5,6,7-tetrahydro-2H-isoindol-1-yl)-4-phenoxy-N-(tetrahydrofuran-2-ylmethyl)benzamide] |
| 1400 | 2030 | 3700 | – | Cc1[nH]c(-c2ccc(S(N)(=O)=O)cc2)c2c1C(=O)CCC2 [Example 5, 4-(3-methyl-4-oxo-4,5,6,7-tetrahydro-2H-isoindol-1-yl)benzenesulfonamide] |
| 1350 | 2620 | > 3000 | – | Cc1[nH]c(-c2ccccc2OCc2ccccn2)c2c1C(=O)CCC2 [Example 34, 3-methyl-1-[2-(pyridin-2-ylmethoxy)phenyl]-2,5,6,7-tetrahydro-4H-isoindol-4-one] |
| 576 | 409 | > 3000 | – | Cc1[nH]c(-c2cccc(NS(C)(=O)=O)c2)c2c1C(=O)CC(C)(C)C2 [Example 64, N-[3-(3,6,6-trimethyl-4-oxo-4,5,6,7-tetrahydro-2H-isoindol-1-yl)phenyl]methanesulfonamide] |
| 569 | 1090 | > 3000 | – | CC(=O)Nc1ccc(Oc2ccccc2)c(-c2c3c(c(C)n2C)C(=O)CCC3)c1 [Example 42, N-[3-(2,3-dimethyl-4-oxo-4,5,6,7-tetrahydro-2H-isoindol-1-yl)-4-phenoxyphenyl]acetamide] |
| 3680 | 3070 | 3400 | – | Cc1[nH]c(-c2ccccc2)c2c1C(=O)CCC2 [Example 1, 3-methyl-1-phenyl-2,5,6,7-tetrahydro-4H-isoindol-4-one] |
| 765 | 4680 | > 3000 | – | Cc1[nH]c(-c2ccccc2OCC2CCCO2)c2c1C(=O)CCC2 (centres unmarked) [Example 31, 3-methyl-1-[2-(tetrahydrofuran-2-ylmethoxy)phenyl]-2,5,6,7-tetrahydro-4H-isoindol-4-one] |
| 9 | 88 | 184 | – | CCS(=O)(=O)Nc1ccc(OC2CCC(F)(F)CC2)c(-c2[nH]c(C)c3c2CCCC3=O)c1 [Example 52, N-{4-[(4,4-difluorocyclohexyl)oxy]-3-(3-methyl-4-oxo-4,5,6,7-tetrahydro-2H-isoindol-1-yl)phenyl}ethanesulfonamide] |
| 67 | 37 | 645 | – | Cc1[nH]c(-c2cc(NS(C)(=O)=O)ccc2Sc2ccccc2)c2c1C(=O)CCC2 [Example 44, N-[3-(3-methyl-4-oxo-4,5,6,7-tetrahydro-2H-isoindol-1-yl)-4-(phenylsulfanyl)phenyl]methanesulfonamide] |
| 261 | 805 | 676 | – | COc1cc(-c2[nH]c(C)c3c2CCCC3=O)cc(OC)c1OC [Example 7, 3-methyl-1-(3,4,5-trimethoxyphenyl)-2,5,6,7-tetrahydro-4H-isoindol-4-one] |
| 71 | 551 | 609 | – | CC(=O)Nc1ccc(Oc2ccc(F)cc2F)c(-c2[nH]c(C)c3c2CCCC3=O)c1 [Example 50, N-[4-(2,4-difluorophenoxy)-3-(3-methyl-4-oxo-4,5,6,7-tetrahydro-2H-isoindol-1-yl)phenyl]acetamide] |
| 68 | 43 | – | 564 | Cc1[nH]c(-c2cc(NS(=O)(=O)CC(F)(F)F)ccc2Oc2ccc(F)cc2F)c2c1C(=O)CCC2 [Example 48, N-[4-(2,4-difluorophenoxy)-3-(3-methyl-4-oxo-4,5,6,7-tetrahydro-2H-isoindol-1-yl)phenyl]-2,2,2-trifluoromethanesulfonamide] |
| 1790 | 4060 | 1230 | – | Cc1[nH]c(-c2cccc3[nH]ccc23)c2c1C(=O)CCC2 [Example 10, 1-(1H-indol-4-yl)-3-methyl-2,5,6,7-tetrahydro-4H-isoindol-4-one] |
| 961 | 3100 | 2750 | – | Cc1[nH]c(-c2cccc(C(N)=O)c2)c2c1C(=O)CCC2 [Example 9, 3-(3-methyl-4-oxo-4,5,6,7-tetrahydro-2H-isoindol-1-yl)benzamide] |
| 943 | 2030 | 1230 | – | Cc1[nH]c(-c2ccccc2OCc2ccccc2)c2c1C(=O)CCC2 [Example 18, 1-[2-(benzyloxy)phenyl]-3-methyl-2,5,6,7-tetrahydro-4H-isoindol-4-one] |
| 161 | 216 | 370 | – | Cc1c2c(c(-c3cc(NS(C)(=O)=O)ccc3Oc3ccccc3)n1C)CCCC2=O [Example 41, N-[3-(2,3-dimethyl-4-oxo-4,5,6,7-tetrahydro-2H-isoindol-1-yl)-4-phenoxyphenyl]methanesulfonamide] |
| 148 | 365 | 232 | – | Cc1[nH]c(-c2cc(N)ccc2Oc2ccccc2)c2c1C(=O)CCC2 [Example 39, 1-(5-amino-2-phenoxyphenyl)-3-methyl-2,5,6,7-tetrahydro-4H-isoindol-4-one] |
| 1040 | 8160 | > 3000 | – | Cc1[nH]c(-c2ccccc2OCCN2CCOCC2)c2c1C(=O)CCC2 [Example 33, 3-methyl-1-{2-[2-(morpholin-4-yl)ethoxy]phenyl}-2,5,6,7-tetrahydro-4H-isoindol-4-one] |
| 1430 | 3820 | 2500 | – | Cc1[nH]c(-c2ccc(S(C)(=O)=O)cc2)c2c1C(=O)CCC2 [Example 8, 3-methyl-1-[4-(methylsulfonyl)phenyl]-2,5,6,7-tetrahydro-4H-isoindol-4-one] |
| – | – | 3180 | – | Cc1[nH]c(-c2cccc3ccccc23)c2c1C(=O)CCC2 [Example 19, 3-methyl-1-(naphthalen-1-yl)-2,5,6,7-tetrahydro-4H-isoindol-4-one] |
| 4880 | 4860 | – | – | Cc1[nH]c(-c2ccccc2OCc2ccc3[nH]ncc3c2)c2c1C(=O)CCC2 [Example 38, 1-[2-(1H-indazol-5-ylmethoxy)phenyl]-3-methyl-2,5,6,7-tetrahydro-4H-isoindol-4-one] |
| 932 | 513 | – | – | Cc1[nH]c(-c2ccc3c(c2)OCO3)c2c1C(=O)CC(C)(C)C2 [Example 58, 1-(1,3-benzodioxol-5-yl)-3,6,6-trimethyl-2,5,6,7-tetrahydro-4H-isoindol-4-one] |
| 9140 | 11000 | – | – | Cc1[nH]c(-c2ccccc2OCc2cccc3cccnc23)c2c1C(=O)CCC2 [Example 35, 3-methyl-1-[2-(quinolin-8-ylmethoxy)phenyl]-2,5,6,7-tetrahydro-4H-isoindol-4-one] |
| 2860 | 10400 | – | – | Cc1ccc(-c2[nH]c(C)c3c2CCCC3=O)cc1C [Example 12, 1-(3,4-dimethylphenyl)-3-methyl-2,5,6,7-tetrahydro-4H-isoindol-4-one] |
| 1880 | 5460 | – | – | COc1ccc(-c2[nH]c(C)c3c2CCCC3=O)cc1 [Example 11, 1-(4-methoxyphenyl)-3-methyl-2,5,6,7-tetrahydro-4H-isoindol-4-one] |

Reference: patent publication US9776990B2, “Isoindolone derivatives” (AbbVie Inc., priority 2012, dated 2017)
